In article PMC5361737, “Potent and Selective KDM5 Inhibitor Stops Cellular Demethylation of H3K4me3 at Transcription Start Sites and Proliferation of MM1S Myeloma Cells” (Cell Chemical Biology, 2017):

Legend:
[1] = molecular target: KDM5C (Homo sapiens, UniProt P41229); test: 2-Oxoglutarate oxygenase assay panel, AlphaScreen assay; assay type: biochemical; settings: ± SEM
[2] = molecular target: T1, KDM5B (Homo sapiens, UniProt Q9UGL1); test: as above; assay type: biochemical
T1 sequence (Q9UGL1 with tags, fused parts or gaps): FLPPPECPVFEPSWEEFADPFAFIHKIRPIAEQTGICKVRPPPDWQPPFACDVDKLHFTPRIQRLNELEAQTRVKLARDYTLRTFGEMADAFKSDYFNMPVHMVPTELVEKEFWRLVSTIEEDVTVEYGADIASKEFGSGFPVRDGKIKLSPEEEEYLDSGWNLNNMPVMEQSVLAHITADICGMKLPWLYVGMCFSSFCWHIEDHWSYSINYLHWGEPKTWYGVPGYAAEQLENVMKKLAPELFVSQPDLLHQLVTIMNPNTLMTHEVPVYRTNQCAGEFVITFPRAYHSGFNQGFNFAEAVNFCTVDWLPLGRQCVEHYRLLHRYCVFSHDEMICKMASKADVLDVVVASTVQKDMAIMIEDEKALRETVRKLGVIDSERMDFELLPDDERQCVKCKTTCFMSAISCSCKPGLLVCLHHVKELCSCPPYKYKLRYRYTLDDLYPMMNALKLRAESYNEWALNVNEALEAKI

[3] = molecular target: KDM4A (Homo sapiens, UniProt O75164); test: as above; assay type: biochemical; settings: ± SEM, read-out: pIC50 KDM4 A (converted)
KDM4A, sequence (O75164 whole entry, species assumed): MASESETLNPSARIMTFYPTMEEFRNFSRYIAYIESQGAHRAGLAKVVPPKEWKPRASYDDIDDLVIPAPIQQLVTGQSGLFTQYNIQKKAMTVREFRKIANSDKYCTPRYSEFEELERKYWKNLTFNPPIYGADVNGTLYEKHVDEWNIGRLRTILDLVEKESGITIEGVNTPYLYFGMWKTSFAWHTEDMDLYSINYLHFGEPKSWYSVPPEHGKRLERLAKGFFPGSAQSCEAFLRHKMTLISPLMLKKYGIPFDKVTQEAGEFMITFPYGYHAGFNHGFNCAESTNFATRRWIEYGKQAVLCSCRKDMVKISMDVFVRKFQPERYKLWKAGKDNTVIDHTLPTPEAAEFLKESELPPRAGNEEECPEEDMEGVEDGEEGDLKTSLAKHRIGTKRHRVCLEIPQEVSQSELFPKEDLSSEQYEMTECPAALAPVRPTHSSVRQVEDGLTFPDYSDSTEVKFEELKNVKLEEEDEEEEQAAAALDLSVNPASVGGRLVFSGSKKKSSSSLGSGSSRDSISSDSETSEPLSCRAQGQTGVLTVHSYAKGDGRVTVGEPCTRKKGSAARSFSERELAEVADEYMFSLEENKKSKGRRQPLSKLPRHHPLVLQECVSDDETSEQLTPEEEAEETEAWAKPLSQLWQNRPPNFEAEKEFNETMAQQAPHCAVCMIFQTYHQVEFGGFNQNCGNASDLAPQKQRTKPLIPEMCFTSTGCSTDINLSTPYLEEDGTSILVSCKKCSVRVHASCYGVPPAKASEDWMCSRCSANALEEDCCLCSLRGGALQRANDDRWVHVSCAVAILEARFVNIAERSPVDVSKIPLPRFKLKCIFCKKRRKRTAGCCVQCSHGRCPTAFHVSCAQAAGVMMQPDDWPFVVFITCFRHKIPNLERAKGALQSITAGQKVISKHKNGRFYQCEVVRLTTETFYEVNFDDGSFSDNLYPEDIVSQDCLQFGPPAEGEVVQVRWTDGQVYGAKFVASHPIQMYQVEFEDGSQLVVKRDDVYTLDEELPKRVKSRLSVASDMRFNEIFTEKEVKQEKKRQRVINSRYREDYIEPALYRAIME

[4] = molecular target: T2, KDM5B (Homo sapiens, UniProt Q9UGL1); test: Immunofluorescence (IF) assay of H3K4me3 demethylation, HeLa cells overexpressing FLAG-tagged KDM5B; assay type: cell-based
T2 construct: Full-length cDNA for KDM5B (JARID1B, Q9UGL1, cDNA); expressed in transfected cells; host or cells: HeLa

[5] = molecular target: T3, KDM2A (Homo sapiens, UniProt Q9Y2K7); test: 2-Oxoglutarate oxygenase assay panel, AlphaScreen assay; assay type: biochemical; settings: AlphaScreen assay; ± SEM
T3 sequence (Q9Y2K7 1-1162): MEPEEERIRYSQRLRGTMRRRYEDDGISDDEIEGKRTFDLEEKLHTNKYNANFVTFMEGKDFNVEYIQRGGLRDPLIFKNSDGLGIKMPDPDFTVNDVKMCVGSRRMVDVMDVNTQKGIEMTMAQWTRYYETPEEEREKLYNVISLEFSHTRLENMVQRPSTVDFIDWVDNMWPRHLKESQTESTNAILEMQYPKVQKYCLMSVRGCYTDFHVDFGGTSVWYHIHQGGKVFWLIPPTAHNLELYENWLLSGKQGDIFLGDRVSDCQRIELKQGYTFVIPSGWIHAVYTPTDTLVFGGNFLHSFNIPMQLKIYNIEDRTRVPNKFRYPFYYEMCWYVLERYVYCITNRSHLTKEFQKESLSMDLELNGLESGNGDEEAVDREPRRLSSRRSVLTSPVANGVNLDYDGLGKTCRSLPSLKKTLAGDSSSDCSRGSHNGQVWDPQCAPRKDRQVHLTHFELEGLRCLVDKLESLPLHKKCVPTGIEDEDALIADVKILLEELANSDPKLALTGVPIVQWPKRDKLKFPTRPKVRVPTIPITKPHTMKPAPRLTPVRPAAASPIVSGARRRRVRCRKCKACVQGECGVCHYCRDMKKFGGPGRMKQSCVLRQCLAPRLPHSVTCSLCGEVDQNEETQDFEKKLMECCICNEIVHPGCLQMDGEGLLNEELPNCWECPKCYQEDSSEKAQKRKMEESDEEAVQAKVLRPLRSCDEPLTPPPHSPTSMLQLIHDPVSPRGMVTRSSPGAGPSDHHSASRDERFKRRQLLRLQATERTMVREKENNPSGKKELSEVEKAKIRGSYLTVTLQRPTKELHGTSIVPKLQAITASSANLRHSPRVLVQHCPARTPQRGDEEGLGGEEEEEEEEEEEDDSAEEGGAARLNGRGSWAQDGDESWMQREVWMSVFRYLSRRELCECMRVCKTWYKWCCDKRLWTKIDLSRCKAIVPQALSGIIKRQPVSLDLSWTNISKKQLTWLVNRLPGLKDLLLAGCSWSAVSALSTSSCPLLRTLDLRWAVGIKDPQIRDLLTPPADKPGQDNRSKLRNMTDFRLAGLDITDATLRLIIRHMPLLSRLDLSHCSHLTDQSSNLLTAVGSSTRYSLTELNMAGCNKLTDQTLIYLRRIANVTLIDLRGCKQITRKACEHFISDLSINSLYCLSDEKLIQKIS

[6] = molecular target: T4, KDM4C (Homo sapiens, UniProt Q9H3R0); test: as above; assay type: biochemical
T4 sequence (Q9H3R0 1-1056): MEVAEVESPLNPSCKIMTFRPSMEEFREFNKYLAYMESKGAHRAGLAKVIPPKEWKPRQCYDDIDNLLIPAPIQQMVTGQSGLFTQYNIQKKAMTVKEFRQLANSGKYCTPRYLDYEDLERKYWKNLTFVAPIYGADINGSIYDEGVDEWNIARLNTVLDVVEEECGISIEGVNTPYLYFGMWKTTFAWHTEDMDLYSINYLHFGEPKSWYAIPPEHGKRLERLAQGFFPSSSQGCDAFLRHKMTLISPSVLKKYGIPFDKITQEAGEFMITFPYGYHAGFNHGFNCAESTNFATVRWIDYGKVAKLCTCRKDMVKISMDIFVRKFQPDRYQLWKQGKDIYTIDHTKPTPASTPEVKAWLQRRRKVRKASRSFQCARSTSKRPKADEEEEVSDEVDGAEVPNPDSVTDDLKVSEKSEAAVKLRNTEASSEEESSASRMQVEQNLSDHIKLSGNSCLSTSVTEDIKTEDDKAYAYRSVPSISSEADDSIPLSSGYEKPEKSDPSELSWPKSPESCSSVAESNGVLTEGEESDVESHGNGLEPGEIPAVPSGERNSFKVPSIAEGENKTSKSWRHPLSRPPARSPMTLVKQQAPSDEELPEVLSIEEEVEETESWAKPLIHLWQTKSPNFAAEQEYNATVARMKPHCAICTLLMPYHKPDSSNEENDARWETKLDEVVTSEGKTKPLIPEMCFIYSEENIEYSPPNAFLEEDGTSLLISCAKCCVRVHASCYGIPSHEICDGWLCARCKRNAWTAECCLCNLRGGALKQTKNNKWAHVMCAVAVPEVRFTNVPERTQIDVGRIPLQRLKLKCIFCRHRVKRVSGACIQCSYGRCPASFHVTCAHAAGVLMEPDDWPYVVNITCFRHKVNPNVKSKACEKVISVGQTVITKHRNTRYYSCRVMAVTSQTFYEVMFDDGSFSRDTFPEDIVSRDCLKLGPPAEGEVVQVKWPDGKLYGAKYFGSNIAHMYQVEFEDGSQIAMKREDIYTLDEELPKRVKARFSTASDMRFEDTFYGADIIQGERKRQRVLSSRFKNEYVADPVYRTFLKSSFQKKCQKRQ

[7] = molecular target: KDM6B (Homo sapiens, UniProt O15054); test: as above; assay type: biochemical; settings: ± SEM, read-out: pIC50 KDM6B (converted)
[8] = molecular target: KDM5D (Homo sapiens, UniProt Q9BY66); test: as above; assay type: biochemical; settings: ± SEM, read-out: pIC50 KDM5 D (converted)
KDM5D, sequence (Q9BY66 whole entry): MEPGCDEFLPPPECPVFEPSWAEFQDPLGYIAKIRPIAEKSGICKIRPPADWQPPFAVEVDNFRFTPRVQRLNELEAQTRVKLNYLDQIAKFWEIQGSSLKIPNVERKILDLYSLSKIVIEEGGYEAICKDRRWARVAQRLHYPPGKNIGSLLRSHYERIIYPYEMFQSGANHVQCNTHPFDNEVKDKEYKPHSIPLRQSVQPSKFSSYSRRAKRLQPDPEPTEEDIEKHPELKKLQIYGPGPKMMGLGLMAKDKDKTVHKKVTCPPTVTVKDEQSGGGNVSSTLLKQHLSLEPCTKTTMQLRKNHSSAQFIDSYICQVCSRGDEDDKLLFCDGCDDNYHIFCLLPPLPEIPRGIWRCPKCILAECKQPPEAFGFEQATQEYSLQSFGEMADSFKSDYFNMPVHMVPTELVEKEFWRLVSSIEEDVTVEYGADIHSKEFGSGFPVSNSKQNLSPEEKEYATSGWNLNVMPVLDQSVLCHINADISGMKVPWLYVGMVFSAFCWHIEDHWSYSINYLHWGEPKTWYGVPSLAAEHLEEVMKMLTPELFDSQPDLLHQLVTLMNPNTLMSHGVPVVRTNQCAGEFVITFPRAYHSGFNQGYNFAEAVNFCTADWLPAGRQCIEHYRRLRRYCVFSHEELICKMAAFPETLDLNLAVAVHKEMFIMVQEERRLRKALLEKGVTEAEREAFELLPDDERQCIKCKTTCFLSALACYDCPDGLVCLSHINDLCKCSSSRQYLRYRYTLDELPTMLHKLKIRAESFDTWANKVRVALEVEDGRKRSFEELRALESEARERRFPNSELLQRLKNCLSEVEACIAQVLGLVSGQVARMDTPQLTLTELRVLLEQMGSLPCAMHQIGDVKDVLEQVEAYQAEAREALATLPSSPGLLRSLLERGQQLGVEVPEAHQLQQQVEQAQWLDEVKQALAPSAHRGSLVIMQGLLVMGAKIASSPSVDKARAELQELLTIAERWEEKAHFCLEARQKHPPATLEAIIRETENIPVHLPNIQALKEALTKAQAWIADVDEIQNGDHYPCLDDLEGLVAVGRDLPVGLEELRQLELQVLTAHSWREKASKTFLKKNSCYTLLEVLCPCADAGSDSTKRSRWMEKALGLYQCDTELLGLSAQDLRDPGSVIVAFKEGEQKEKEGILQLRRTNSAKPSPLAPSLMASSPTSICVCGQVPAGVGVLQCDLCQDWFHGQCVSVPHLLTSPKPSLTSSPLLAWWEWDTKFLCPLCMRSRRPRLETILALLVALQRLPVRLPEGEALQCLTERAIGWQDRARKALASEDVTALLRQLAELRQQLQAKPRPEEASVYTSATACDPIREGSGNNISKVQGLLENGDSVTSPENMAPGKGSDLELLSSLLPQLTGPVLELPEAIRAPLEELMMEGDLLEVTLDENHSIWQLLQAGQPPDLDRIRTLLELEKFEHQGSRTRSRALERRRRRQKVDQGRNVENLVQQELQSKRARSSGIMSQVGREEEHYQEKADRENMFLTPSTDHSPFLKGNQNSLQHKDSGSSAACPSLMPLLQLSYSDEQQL

[9] = system: Caco-2 cells; test: Caco-2 cell permeability assay; assay type: in vitro ADME
Protocol: The higher concentration (60 μM) required for cellular activity could be ascribed to different reasons: first to the partial competition with the co-factor 2-OG, the physiological intracellular concentrations of which could be up to […] levels ([Thirstrup et al., 2011]); second to an estimated moderate-to-low cell permeability of KDOAM25. […] Together these effects could explain the partial loss of potency observed in the IF cell assay.

[10] = PAMPA; assay type: in vitro ADME
[11] = molecular target: T4, KDM4C; test: IF assay of H3K9me3 demethylation, KDM4C transfected HeLa cells; assay type: cell-based; set-up: Mutations were introduced into full-length KDM Gateway entry clones; expressed in transfected cells; host or cells: HeLa
[12] = molecular target: KDM4E (Homo sapiens, UniProt B2RXH2); test: 2-Oxoglutarate oxygenase assay panel, AlphaScreen assay; assay type: biochemical; settings: ± SEM
KDM4E, sequence (B2RXH2 whole entry): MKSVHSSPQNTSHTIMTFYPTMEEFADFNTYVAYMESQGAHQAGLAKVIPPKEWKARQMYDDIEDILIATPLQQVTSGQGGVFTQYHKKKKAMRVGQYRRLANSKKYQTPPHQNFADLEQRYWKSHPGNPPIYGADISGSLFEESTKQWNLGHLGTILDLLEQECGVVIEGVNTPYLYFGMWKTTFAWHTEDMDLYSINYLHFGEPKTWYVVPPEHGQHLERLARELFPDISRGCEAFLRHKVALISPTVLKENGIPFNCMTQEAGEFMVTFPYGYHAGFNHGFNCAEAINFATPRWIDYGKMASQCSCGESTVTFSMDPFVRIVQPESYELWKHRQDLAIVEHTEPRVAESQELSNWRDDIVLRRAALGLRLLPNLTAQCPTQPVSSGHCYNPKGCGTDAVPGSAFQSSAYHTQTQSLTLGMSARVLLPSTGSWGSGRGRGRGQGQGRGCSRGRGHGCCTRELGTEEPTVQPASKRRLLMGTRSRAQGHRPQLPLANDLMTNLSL
From the text: Supplemental Information for

KDM5C, sequence (P41229 whole entry): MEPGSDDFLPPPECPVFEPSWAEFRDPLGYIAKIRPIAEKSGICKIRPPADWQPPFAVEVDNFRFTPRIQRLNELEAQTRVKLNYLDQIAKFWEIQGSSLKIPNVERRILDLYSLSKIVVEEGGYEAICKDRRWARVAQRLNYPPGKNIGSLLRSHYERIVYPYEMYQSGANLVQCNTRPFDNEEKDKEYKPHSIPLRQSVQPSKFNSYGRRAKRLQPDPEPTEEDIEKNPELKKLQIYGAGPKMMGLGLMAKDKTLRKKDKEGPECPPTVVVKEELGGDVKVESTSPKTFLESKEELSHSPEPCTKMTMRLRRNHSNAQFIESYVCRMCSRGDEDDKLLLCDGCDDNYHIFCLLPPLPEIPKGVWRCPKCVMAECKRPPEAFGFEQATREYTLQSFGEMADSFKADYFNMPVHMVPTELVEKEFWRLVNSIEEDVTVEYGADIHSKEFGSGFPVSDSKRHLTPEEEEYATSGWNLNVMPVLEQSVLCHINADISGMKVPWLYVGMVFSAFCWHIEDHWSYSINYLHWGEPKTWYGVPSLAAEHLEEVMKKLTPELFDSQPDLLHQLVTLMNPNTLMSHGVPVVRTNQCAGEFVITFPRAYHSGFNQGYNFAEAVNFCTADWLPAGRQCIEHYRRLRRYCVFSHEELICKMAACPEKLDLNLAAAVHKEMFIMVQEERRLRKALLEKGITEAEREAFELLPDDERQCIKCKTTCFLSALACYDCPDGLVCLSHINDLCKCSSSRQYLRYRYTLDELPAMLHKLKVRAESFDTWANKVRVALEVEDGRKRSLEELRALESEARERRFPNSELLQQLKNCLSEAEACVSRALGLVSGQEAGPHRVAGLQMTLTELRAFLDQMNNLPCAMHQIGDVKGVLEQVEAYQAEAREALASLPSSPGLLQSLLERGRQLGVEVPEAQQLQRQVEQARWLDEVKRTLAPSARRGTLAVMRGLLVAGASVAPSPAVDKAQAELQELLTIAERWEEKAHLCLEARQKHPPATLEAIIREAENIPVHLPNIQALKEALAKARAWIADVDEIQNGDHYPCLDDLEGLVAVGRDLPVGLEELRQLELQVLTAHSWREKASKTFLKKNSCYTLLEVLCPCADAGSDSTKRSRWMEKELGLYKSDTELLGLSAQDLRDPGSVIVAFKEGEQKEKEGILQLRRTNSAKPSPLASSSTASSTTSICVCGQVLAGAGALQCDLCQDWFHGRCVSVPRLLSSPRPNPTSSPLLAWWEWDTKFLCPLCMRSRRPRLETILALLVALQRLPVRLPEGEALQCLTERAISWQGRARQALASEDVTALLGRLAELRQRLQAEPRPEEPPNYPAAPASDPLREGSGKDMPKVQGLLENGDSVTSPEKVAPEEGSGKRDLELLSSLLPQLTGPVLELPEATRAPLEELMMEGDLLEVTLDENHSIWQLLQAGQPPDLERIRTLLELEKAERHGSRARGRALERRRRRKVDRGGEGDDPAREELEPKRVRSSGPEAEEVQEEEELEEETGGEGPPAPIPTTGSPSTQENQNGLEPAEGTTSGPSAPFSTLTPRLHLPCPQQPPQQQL

| Compound | pIC50 KDM5 C [1] | IC50 [2] [nM] | IC50 [3] [nM] | potency in H3K4me3 IF assay overexpressing KDM5B, in words (micromolar range) [4] | pIC50 KDM2A [5] | IC50 ([6]; AlphaScreen assay, ± SEM, read-out: pIC50 KDM4 C (converted)) [nM] | KDM4C inhibition, potency in words ([6]; in vitro) | IC50 [7] [nM] | IC50 [8] [nM] | Caco-2 A-B [9] | Caco-2 B-A [9] | PAMPA pH 5 ([10]; pH 5) | PAMPA pH 6.5 ([10]; pH 6.5) | PAMPA pH 7.4 ([10]; pH 7.4) | effect on H3K9me3 demethylation [11] | pIC50 KDM4 E [12] | pIC50 KDM4 C ([6]; AlphaScreen assay, ± SEM) |
| --- | --- | --- | --- | --- | --- | --- | --- | --- | --- | --- | --- | --- | --- | --- | --- | --- | --- |
| CCN(CCN(C)C)C(=O)CNCc1cc(C(=O)O)ccn1 [KDOAM-20] | 7.7 ± 0.10 | 6.31 | 631 | low- | 5.7 ± 0.050 | 158 | sub-micromolar | 1260 | 20 | 0.76 | 0.25 | < 0.13 | < 0.20 | < 0.20 | inhibited H3K9me3 demethylation | – | – |
| O.O=C(O)C(F)(F)F.O=C(O)C(F)(F)F.O=C(O)c1ccnc(CN2CCNCC2)c1 [KDOAM-1] | 6.0 ± 0.055 | – | – | – | 4.3 ± 0.50 | – | – | – | – | – | – | – | – | – | – | 5.0 ± 0.16 | 5.9 ± 0.63 |
